ChEMBL document CHEMBL1129749, “Nudicauline and elatine as potent norditerpenoid ligands at rat neuronal alpha-bungarotoxin binding sites: importance of the 2-(methylsuccinimido)benzoyl moiety for neuronal nicotinic acetylcholine receptor binding” (J Med Chem, 1996)
pIC50: −log10 of the molar value.

Molecular target: Neuronal acetylcholine receptor subunit alpha-7 (Rattus norvegicus, UniProt Q05941)
Assay: Binding affinity of Norditerpenoid Alkaloids at rat neuronal alpha7-type nicotinic acetylcholine receptor

Chain of Neuronal acetylcholine receptor subunit alpha-7 (Q05941 whole entry): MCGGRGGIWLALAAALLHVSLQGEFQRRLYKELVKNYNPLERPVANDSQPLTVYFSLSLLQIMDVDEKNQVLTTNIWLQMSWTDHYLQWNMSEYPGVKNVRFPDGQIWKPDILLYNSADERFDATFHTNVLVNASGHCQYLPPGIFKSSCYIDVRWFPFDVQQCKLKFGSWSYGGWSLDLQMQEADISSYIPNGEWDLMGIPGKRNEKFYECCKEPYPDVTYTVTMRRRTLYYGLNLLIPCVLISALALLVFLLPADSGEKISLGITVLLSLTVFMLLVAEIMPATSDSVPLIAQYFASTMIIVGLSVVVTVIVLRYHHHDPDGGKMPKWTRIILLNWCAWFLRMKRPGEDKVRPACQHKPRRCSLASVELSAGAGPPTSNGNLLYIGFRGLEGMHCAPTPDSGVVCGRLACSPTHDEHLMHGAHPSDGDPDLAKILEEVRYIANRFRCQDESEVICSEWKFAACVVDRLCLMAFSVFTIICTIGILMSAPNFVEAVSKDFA

| Compound | pIC50 |
| --- | --- |
| CCN1C[C@]2(OC(=O)c3ccccc3N)CC[C@H](OC)[C@]34C1[C@@H](CC23)[C@@]1(O)C[C@H](OC)[C@H]2CC4[C@]1(O)[C@H]2OC (some centres undefined) | 5.17 |
| CCN1C[C@]2(OC(=O)c3ccccc3NC(C)=O)CC[C@H](OC)[C@@]34[C@@H]2C[C@@H]([C@@H]13)[C@@]1(O)C[C@H](OC)[C@H]2C[C@@H]4[C@]1(O)[C@H]2OC | 4.02 |
| CCN1C[C@]2(COC)CC[C@H](O)[C@@]34C5C[C@@H]6[C@@H](OC)C[C@](O)(C(CC23)C14)C5[C@H]6OC(C)=O (some centres undefined) [CONDELPHINE] | 5.80 |
| CCN1C[C@]2(COC)CC[C@H](OC)[C@]34C5C[C@@H]6[C@@H](OC)C[C@@]7(OCO[C@@]7(C13)[C@@H](O)C24)C5[C@H]6OC (some centres undefined) [DELCORINE] | 4.28 |
| CCN1C[C@]2(COC)CC[C@H](O)[C@]34C1[C@@](O)([C@@H](OC)[C@H]23)[C@@]1(O)C[C@H](OC)[C@H]2C[C@@H]4[C@@H]1[C@H]2OC [DELSOLINE] | 4.72 |
| CCN1C[C@]2(C)CC[C@H](OC)[C@@]34C1[C@]1(OCO[C@@]15C[C@H](OC)[C@H]1C[C@]3(O)[C@@H]5[C@H]1OC)[C@@H](OC(C)=O)[C@H]24 [DELTALINE] | 3.96 |
| CCN1C[C@]2(COC(=O)c3ccccc3N3C(=O)C[C@H](C)C3=O)CC[C@H](OC)[C@@]34C1[C@@]1(OCO[C@@]15C[C@H](OC)[C@H]1C[C@@H]3[C@@H]5[C@H]1OC)[C@@H](OC)[C@H]24 [ELATINE] | 8.21 |
| CCN1C[C@]2(CO)CC[C@H](OC)[C@@]34[C@@H]5C[C@H]6[C@H](OC)[C@@H]5[C@](O)(C[C@@H]6OC)[C@](O)([C@@H](OC)[C@H]23)[C@@H]14 [LYCOCTONINE] | 5.00 |
| CCN1C[C@]2(COC(=O)c3ccccc3N3C(=O)C[C@H](C)C3=O)CC[C@H](OC)[C@]34C5C[C@@H]6[C@@H](OC)C[C@@](O)(C5[C@H]6OC(C)=O)[C@](O)(C13)[C@@H](OC)C24 (some centres undefined) [NUDICAULINE] | 8.77 |
